The structures appear in SMILES notation. Non-standard residues stand in square brackets, D forms with d. Residues, ends and D or L forms follow the SMILES beside them. *: point of attachment. pGlu = O=C1CC[CH](C(=O)O)N1; Morpholide = C1CN(*)CCO1; Thz = O=C(O)[CH]1CSCN1 Where only a bound is given, the exact number is not on record here.

Turning to `CSc1ccc(NC(=O)NCc2cc(C(C)(C)C)c(O)c(C(C)(C)C)c2)cc1`, the melting point (in general, the temperature, or range, at which the solid turns liquid) lay within 141 to 145 °C.
For the compound `CCOCc1nc2c(N)nc3cc(-c4ccc(Cl)c(Cl)c4)cnc3c2n1CC(C)(C)O`, the melting point is 144 to 147 °C.
As for `CC(NO)c1ccc2c(c1)Sc1cc(Cl)ccc1O2` (stereo not drawn), the melting point was in the range of 103 to 105 °C.
As for `CCOc1nn(-c2cc(C(F)(F)F)ccn2)cc1CCCOc1cccc(OC(C)(C)C(=O)O)c1`, the melting point was 98 to 99 °C.
Turning to `CCCCc1nc2cc(Cl)cc(C(=O)O)c2n1C(C)c1ccc(C(=O)O)cc1` (stereo not drawn), the melting point was 312 to 315 °C.
The result for `COc1ccc(NS(=O)(=O)c2cc(C)cc(C(C)(C)C)c2O)cc1` reads 130 to 134 °C.
The result for `COc1cccc(OC)c1C(=N)N` reads 170 to 174 °C.
`O=C(O)Cc1ccc(-c2cn3cccnc3n2)cc1` registered a melting point of 264 to 265 °C.
`N#Cc1ccc(-c2ccc(OS(N)(=O)=O)cc2)cc1Cn1cncn1` registered a melting point of 179 to 180 °C.
In turn, `CN1CCN(c2cccc3c2C=C(C#N)CC3)CC1` gave a melting point of 104 to 105 °C.
The same measure for `CC(C)(C)OC(=O)N1CCCC[C@@H]1[C@H](CO)c1ccc(Br)cc1`: 117 to 118 °C.
Compound `Nc1c(Br)cc(-c2nc3ccccc3s2)cc1Br` gave a melting point of 201 to 203 °C.
The same measure for `COC=CC=C(C#N)C#N`: 74 to 76 °C.
The same measure for `CCOc1ccc(C(=O)CCC(=O)Nc2sc(-c3ccccc3)nc2-c2ccccc2)cc1OCC`: 139 to 140 °C; for `CCNC(=O)c1c([Si](C)(C)C)ccc(C=O)c1Cl`: 140 to 142 °C; for `O=C(NC1CCC1)c1cc(Nc2nc(Cl)nc3ccoc23)[nH]n1`: 277 °C.
`CSC1CC(=O)N1CC(=O)OCc1ccccc1` (single isomer, unassigned; (-)) registered a melting point of 38 to 40 °C.
In turn, `COc1cc2cc(CO)c(CO)c(-c3cccc(-n4c(=O)ccc5ccccc54)n3)c2cc1OC` returned a melting point of 142 to 143 °C.
Consider `CC(C)COC(=O)Nc1cccc(-c2ccnc3c(-c4cccs4)cnn23)c1`, for which the melting point was 140 to 141 °C.
In turn, `Cc1cc(C)cc(COC(=O)[C@H](Cc2cccc3ccccc23)NC(=O)OC(C)(C)C)c1` came in with a melting point of 93 to 94 °C.
`CNc1c(NCCSCc2ccc(CN(C)C)o2)c(=O)c1=O`: the melting point lay in the range of 176 to 178 °C.
The compound `CC(C)c1c(C(=O)Nc2ccccc2)c(-c2ccccc2)c(-c2ccc(F)cc2)n1CC[C@H]1C[C@H](O)CC(=O)O1` (relative stereo) displayed a melting point of 90 to 97 °C.
In the case of `Nn1cnc2ccccc2c1=O`, the melting point fell in the range of 209 to 210 °C.
For the compound `Cn1c(COc2ccc(CC3SC(=O)NC3=O)cc2)nc2ccc(Oc3cccc(NC(=O)NCc4ccc(C(F)(F)F)cc4)c3)cc21` (stereo not drawn), the melting point lay in the range of 128 to 132 °C.
The compound `CN1CCN(c2ccc(/C=C/c3ccccc3F)cc2)CC1` gave a melting point of 142 to 144 °C.
In turn, `O=C(NCc1cccnc1)[NH+]([O-])c1cccc2ccccc12` (stereo not drawn) displayed a melting point of 188 °C.
`O=C(O)C(=O)Nc1cccc(NC(=O)C(=O)O)c1Cl` yielded a melting point of more than 320 °C.
On to `CC/C=C/Cn1c(Sc2cc(C)cc(C)c2)c(CC)c(=O)[nH]c1=O`, for which the melting point fell in the range of 129 to 130 °C.
On to `COCCOCCOCCOCCOc1cc(NC(=O)OC(C)(C)C)c(NC(=O)CC(=O)c2cccc(C#N)c2)cc1C#Cc1ccccc1`, for which the melting point was 135 to 136 °C.
The compound `CCc1cccc(CC(=O)O)c1OCCn1cc(C(=O)NCc2ccc(Cl)cc2Cl)c(OC(C)C)n1` came in with a melting point of 125 to 126 °C.
As for `Cc1ccc(NC(=O)c2cc(Cl)ccc2NCC2CCN(C(C)C)CC2)nc1`, the melting point lay in the range of 147 to 148 °C.
As to `Cc1cc(-c2cnn3c(C(F)(F)F)cc(-c4ccc(Br)cc4)nc23)cc(C)n1`, the melting point came to 258 °C.
The same measure for `CC(C)(C)c1ccc(Nc2ncc(-c3ccc4ncncc4c3)c3ccccc23)cc1`: 213 to 214 °C.
As for `O=[N+]([O-])c1cccc2c(C(F)(F)F)cccc12`, the melting point lay in the range of 107 to 108 °C.
Compound `O=C(O)c1ccc(C(=O)Nc2nnc(-c3cc(Cl)cc(Cl)c3O)s2)nc1` displayed a melting point of 267 °C.
As for `CN(CCCCCNC(=O)NCCCOc1cccc(CN2CCCCC2)c1)CCN(Cc1ccc(F)cc1)c1ccccn1`, the melting point amounted to 63 °C.
`OCCn1c(NC2CCNCC2)nc2cccnc21` registered a melting point of 157 °C.
`COC(=O)N1CCC(=C2c3ccccc3CCc3cccnc32)CC1` displayed a melting point of 116 to 118 °C.
Consider `CC(=O)c1cc(CBr)cc(CBr)c1`, for which the melting point was 87 to 88 °C.
On to `CN1C(=O)CN(c2ccccc2)NC1=O`, for which the melting point lay within 207 to 213 °C.
`COc1cc2ncnc(N3CCc4cccc(C)c43)c2cc1OC` yielded a melting point of 146 to 147 °C.
In turn, `O=C(O)c1ccnc2[nH]c(CCc3ccccc3)cc12` returned a melting point of more than 300 °C.
`CC(=NOCc1ccc(OCc2nc(-c3ccccc3)oc2C)cc1)C(=O)O` had a melting point of 147 to 148 °C.
The result for `O=C(O)CCC/C=C\[C@@H]1C[C@@H](NS(=O)(=O)c2ccc(Cl)cc2)CN1Cc1ccccc1` reads 87 to 91 °C; that for `CCOC(=O)c1cc(=O)c2c(OCC(O)COc3cccc(O)c3C(=O)C=CN(C)C)cccc2o1` (stereo not drawn), 159 to 165 °C.
In the case of `COC(=O)C1Cc2c([nH]c3ccccc23)C(c2ccc(OC)c(O)c2)N1` (stereo not drawn), the melting point was 140 to 148 °C.
The same measure for `CC(C)OCc1cnc2c(NC(=O)c3c(Cl)cccc3Cl)cccc2c1Cl`: 117 to 118 °C.
For the compound `Cc1cc(N2CC=C(C(=O)OC(C)C)CC2)c2cccc(Br)c2n1`, the melting point fell in the range of 130 to 131 °C.
Compound `CC(c1oc2ccc(F)cc2c(=O)c1-c1cccc(F)c1)n1cnc2c(N)ncnc21` (stereo not drawn) came in with a melting point of 252 to 255 °C.
The result for `COCCc1sc(C(C)(O)c2nc(C)c(CCOC)s2)nc1C` reads 50 to 51 °C.
The compound `C=CCC(c1c(Cl)c(Cl)cc2[nH]c(=O)c(=O)[nH]c12)S(C)(=O)=O` (stereo not drawn) gave a melting point of 270 to 272 °C.
For `COc1cc(Br)c(C2=NC(C)(C)CO2)cc1OC`, the melting point lay in the range of 49 to 51 °C.
The compound `CC(C)(C)OC(=O)N1CCC(N2CCN(CCCN3CCCCC3)C2=C(C#N)C#N)CC1` showed a melting point of 141 to 143 °C.
With `BrCCc1nc(-c2ccccc2)c(-c2ccccc2)o1`, the melting point fell in the range of 72 to 74 °C.
`CN1C(=O)N(C[C@H](C(=O)NOCc2ccccc2)[C@@H](CC2CCCC2)C(=O)N2CCCCC2)C(=O)C1(C)C` showed a melting point of 138 to 140 °C.
For the compound `Cn1nc(-c2c(Cl)cc(C(F)(F)F)cc2Cl)c([N+](=O)[O-])c1N`, the melting point lay within 107 to 108 °C.
Take `NCC(=O)N[C@H]1CC[C@H](O)CC1`: the melting point is 110 to 114 °C.
As for `CCCC(=O)NC(=O)C1c2ccccc2Oc2ccccc21`, the melting point stood at 222 °C.
With `O=C(Nc1nncs1)c1ccc2ccccc2c1`, the melting point was in the range of 197 to 199 °C.
`Fc1ccc(N2CCN(CCCc3[nH]nc4c3CCCC4)CC2)cc1`: the melting point was 106 to 108 °C.
The result for `CON(C)C(=O)c1cccc(-c2nc3sccn3c2-c2ccnc(N[C@@H]3CCCN(S(=O)(=O)c4ccc(Cl)cc4)C3)n2)c1` reads 114 to 115 °C; that for `CC(C)(C)c1ccc(C(=O)N[C@H]2CC[C@H](CCN3CCC(c4cccc5c4CCO5)CC3)CC2)cc1`, 208 °C; that for `OCc1cc(OCc2ccc(C(F)(F)F)cc2)ccn1`, 96 to 98 °C.
On to `O=C1CCC(C(=O)N2CSCC2C(=O)N2CCOCC2)N1` (stereo not drawn) ([pGlu]-[Thz]-Morpholide; configuration not given here), for which the melting point is 187 to 188 °C.
`COc1cc(OC(=O)c2cc(O)c(O)c(O)c2)ccc1OC(=O)c1cc(O)c(O)c(O)c1` came in with a melting point of 214 to 216 °C.
In turn, `CCN1CCc2cc([N+](=O)[O-])ccc21` came in with a melting point of 97 to 98 °C.
In turn, `COc1ccc(C(=O)NCc2ccc(C(=O)O)cc2)cc1C12CC3CC(CC(C3)C1)C2` returned a melting point of 286 to 287 °C.
`Cc1c(C=O)c2c(c(C)c1NC(=O)CC(C)(C)C)C(c1ccc(C(C)C)cc1)CO2` (stereo not drawn) yielded a melting point of 177 to 178 °C.
Compound `Cc1ccnc(-c2ccc(Br)cc2)c1` yielded a melting point of 126 °C.
For the compound `C=CCNc1nc(NCC)nc2ccc([N+](=O)[O-])cc12`, the melting point was 227 to 228 °C.
The same measure for `Cc1c(C)c(N2Cc3ccccc3C2)c(C)c2c1OC(C)(C)C2c1ccc(C(C)C)cc1` (stereo not drawn): 113 to 114 °C; for `CC(C)C(=O)N[C@@H](CS)C(=O)NCCSC(=O)c1ccccc1`: 127 to 130 °C.
The result for `COc1ccccc1-c1cc(Cl)cc2c1NC(CN)CO2` (stereo not drawn) reads 100 °C.
The same measure for `Nc1ccc(Br)cc1CS(=O)(=O)c1ccccc1`: 140 to 141 °C; for `CCCCCCCCCCCCCCCCCC(=O)Oc1ccccc1C(=O)OCC`: 50.5 to 53.5 °C; for `CCOC(CBr)(OCC)C(=O)CBr`: 40 to 41.5 °C.
In the case of `Cc1cc2ncnn2nc1OCC(CS(N)(=O)=O)C(C)C` (stereo not drawn), the melting point fell in the range of 196 to 197 °C.
`CC(C)Nc1nc2ccccc2n2cnnc12` gave a melting point of 133 to 135 °C.
Compound `O=C(O)c1cccc(-c2nccc(-c3ccc(F)cc3)n2)c1` displayed a melting point of 239 to 241 °C.
For the compound `Cc1ccc2c(c1)OCC(=O)N2`, the melting point amounted to 197 °C.
On to `O=C(O)c1cccc(OCc2ccc(Cl)c(Cl)c2)c1`, for which the melting point fell in the range of 173 to 174 °C.
The result for `CCN(CC)c1ccc2cc(C(=O)OCCO)c(=O)oc2c1` reads 106 to 108 °C; that for `COc1ccc(S(N)(=O)=O)cc1C(C)O` (stereo not drawn), 165 to 166 °C; that for `O=C(CCCN1CCC2(CC(O)c3cc(F)ccc32)C1)c1ccc(F)cc1` (stereo not drawn), 143 to 145 °C.
The same measure for `CC1(C)CC(=O)Nc2c(CCCN3CCN(c4nsc5ccccc45)CC3)cccc21`: 166 °C; for `COc1ccc(S(=O)(=O)C2=C(C(=O)NO)CCC2=CCCc2ccccc2)cc1OC`: 70 to 73 °C; for `C=Cc1cnc(C)c(OC(C)=O)c1CSC(C)=O`: 72 to 73 °C.
As for `Cn1c([N+](=O)[O-])cnc1C=O`, the melting point was 90 to 94 °C.
